# Measured values: patent publication US20250179032A1, “HETEROCYCLIC INHIBITORS OF GLUT9 FOR TREATMENT OF DISEASE” (HORIZON THERAPEUTICS IRELAND DAC, priority 2022, published 2025)
# Like-named read-outs stand apart in the source and are kept apart here.
# Target: T1, H. sapiens SLC2A9 variant 2 (GLUT9B) (Homo sapiens, UniProt Q9NRM0)
# T1 sequence (Q9NRM0 1-511 isoform Q9NRM0-2): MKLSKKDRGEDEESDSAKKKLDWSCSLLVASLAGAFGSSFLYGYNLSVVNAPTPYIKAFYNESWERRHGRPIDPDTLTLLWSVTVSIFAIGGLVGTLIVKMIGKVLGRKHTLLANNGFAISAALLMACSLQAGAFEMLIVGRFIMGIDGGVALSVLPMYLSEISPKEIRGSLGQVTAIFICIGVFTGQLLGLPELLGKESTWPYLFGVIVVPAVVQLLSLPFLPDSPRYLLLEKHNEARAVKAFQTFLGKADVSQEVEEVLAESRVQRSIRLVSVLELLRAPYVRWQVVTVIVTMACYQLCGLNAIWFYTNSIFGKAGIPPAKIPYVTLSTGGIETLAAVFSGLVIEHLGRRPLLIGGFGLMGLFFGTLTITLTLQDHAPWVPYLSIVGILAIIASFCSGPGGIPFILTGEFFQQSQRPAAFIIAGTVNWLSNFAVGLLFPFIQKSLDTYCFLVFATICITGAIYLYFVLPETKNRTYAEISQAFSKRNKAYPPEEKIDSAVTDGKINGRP
# Assay: GLUT9 functional assay: uric acid uptake in HEK293T cells, allantoin formation by MS/MS as proxy of GLUT9B inhibition
# Format: cell-based
# Settings: HEK293T cells stably expressing GLUT9B and transiently A. oryzae uricase, uric acid 0.3 mM, 37° C.
# Experimental: Uric acid stocks (9 mM, Millipore-Sigma, U0881) were generated in 125 mM choline chloride (Millipore-Sigma, C7017) and the concentration was determined at 293 nm using a molar extinction coefficient of 9600 M- ^1 cm- ^1) after collecting the absorbance spectra from 220-350 nm. Allantoin stocks (12 mM Toronto Research Chemicals, A540500) were generated in LCMS grade water (Thermo Scientific, 51140). The concentration of allantoin was determined by qNMR (Michigan State University). HEK293T cells were purchased from ATCC (HEK 293T/17 SF). Hanks buffered saline salts (HBSS) was purchased from Millipore-Sigma (H6648-1L).
# SLC2A9 variant 2 was assayed in sodium gluconate buffer was composed of 125 mM sodium gluconate (TCI Chemicals, G0041-500G), 4.8 mM potassium gluconate (TCI Chemicals, G0040-500G), 1.2 mM calcium gluconate (TCI Chemicals, G0037-500G), 1.2 mM potassium phosphate (pH 7.4, Millipore-Sigma, 17835), 1.2 mM MgSO4, Millipore-Sigma, M2773-500G), 25 mM HEPES pH 7.3, (Millipore-Sigma, 54457). The final pH of the buffer was 7.4. Urate 1 was assayed in the same buffer save the pH was made to be 5.5 using 25 mM MES (pH 5.5) buffer vs 25 mM HEPES (pH 7.3) buffer.
# Human untagged clone for (untagged)-human solute carrier family 2 member 9 (SLC2A9), transcript variant (SLC2A9/NM_001001290, FIG. 1 and FIG. 2; SEQ ID NOS: 3 and 4) was purchased from Origene (Cat #SC319239). SLC2A9 variant 2 (GLUT9B) gene was amplified by PCR using the following primer to allow for the introduction of EcoR1 and Not1 sites using the primers below.
# HEK293T clonal stable cell lines containing the SLC2A9 variant 2 construct in the bicistronic pIRESpuro vector were generated using Viafect™ (Promega E4981) as per the manufactures instructions and puromycin selection (5 μg×mL^−1).
# Uric acid uptake was measured in HEK293T cells stably expressing H. sapiens SLC2A9 variant 2 (GLUT9B) and transiently expressing A. oryzae uricase. Thus, decreased allantoin formation was used as a proxy of GLUT9B inhibition. Briefly, clonal cells were plated (53,000 cells/cm^2) in DMEM with 10% FBS. Twenty-four hours later, A. oryzae uricase was transfected, and assay conducted 3 days later across a 12-point curve in buffer (in mM: 125 sodium gluconate, 4.8 potassium gluconate, 1.2 calcium gluconate, 1.2 potassium phosphate, 1.2 magnesium sulfate4, 25 HEPES; pH 7.4) with uric acid at the GLUT9B Km (0.3 mM) for 15 min or for 60 min, at 37° C. Following wash (Hanks, 37° C.), plates were sealed, incubated (5 min, RT) and cells freeze-thawed prior to lysing in water and shaking (30 min RT). Lysates were filtered through PVDF and subjected to MSMS using a 10 mM ammonium acetate-based mobile phase on a porous graphitic carbon column. Allantoin was detected in positive ion mode. Desired analyte concentrations were quantitated by integrating the area under the curve followed by a log-logistic regression model and data compared to a standard curve prepared in a matching HEK293T biological matrix.
# Mass spectrometry measurement of allantoin was completed using an Agilent RapidFire 300 coupled to a Sciex API 4000 mass spectrometer. The stationary phase was an Agilent cartridge D (hypercarb). Mobile phase A was 10 mM ammonium acetate. Mobile phase B was 5 mM ammonium acetate, 25% acetonitrile, 25% acetone. Allantoin was detected in positive ion mode with the following compound ID settings: Q1 159, Q3 115.8, DP 57, CE 12.5 Dwell 100 ms. The source settings were CAD 10, CUR 20, GS1 50, GS250 IS/NC: 5000, TEM 650, EP 10, CXP 10 where Q1 and Q3 resolution were set to low.
# Data was quantitated using Area under the curve integration was performed with the RapidFire™ Integrator (Agilent Technologies) for the desired analytes. Quantitation was completed using in a using a log-logistic regression model using allantoin in matching HEK293T biological matrix.
# [1] = 60 minute assay, read-out: 60 min IC50
# [2] = 15 minute assay, read-out: 15 min IC50
IC50 [1],IC50 [2],SMILES
< 500 nM,–,"COCCCc1cnc(-c2ccc3occc3c2)c(N2CCC(C(=O)O)CC2C)n1 (racemic) [Compound 180, 1-(3-(benzofuran-5-yl)-6-(3-Methoxypropyl)Pyrazin-2-yl)-2-methylpiperidine-4-carboxylic acid]"
< 500 nM,–,"COCCCc1cnc(-c2cc(F)c3occc3c2)c(N2CC[C@@H](C(=O)O)C[C@@H]2C)n1 (single isomer, unassigned) [Compound 183]"
< 500 nM,–,"COCCCc1cnc(-c2cc(F)c3occc3c2)c(N2CC[C@H](C(=O)O)C[C@@H]2C)n1 (single isomer, unassigned) [Compound 229]"
> 2000 nM,–,"COCCCc1cnc(-c2ccc3occc3c2)c(N2CCC[C@H](C(=O)O)C2)n1 (single isomer, unassigned) [Compound 235]"
500 to 2000 nM,–,"COCCCc1cnc(-c2ccc3occc3c2)c(N2CCC[C@@H](C(=O)O)C2)n1 (single isomer, unassigned) [Compound 236]"
–,> 2000 nM,"CCCCc1cnc(-c2ccc(OC)cc2)c(N2CCN(CC(=O)O)CC2)n1 [Compound 1, 2-(4-(6-Butyl-3-(4-Methoxyphenyl)Pyrazin-2-yl)Piperazin-1-yl)Acetic Acid]"
–,> 2000 nM,"CCCCc1cnc(-c2ccc(F)c(OC)c2)c(N2CCC(C(=O)O)CC2)n1 [Compound 2, 1-(6-Butyl-3-(4-Fluoro-3-Methoxyphenyl)Pyrazin-2-yl)Piperidine-4-carboxylic acid]"
< 500 nM,< 500 nM,"CCCCc1cnc(-c2ccc(OC)cc2)c(N2CCC(C(=O)O)CC2)n1 [Compound 3, 1-(6-Butyl-3-(4-Methoxyphenyl)Pyrazin-2-yl)Piperidine-4-Carboxylic Acid]"
–,< 500 nM,"CCCCc1cnc(-c2ccc(OC)cc2)c(N2CC3C(C2)C3C(=O)O)n1 (centres unmarked) [Compound 4, 3-(6-Butyl-3-(4-Methoxyphenyl)Pyrazin-2-yl)-3-Azabicyclo[3.1.0]Hexane-6-carboxylic acid]"
–,> 2000 nM,"CCCCc1cnc(-c2ccc3[nH]ccc3c2)c(N2CCC(C(=O)O)CC2)n1 [Compound 5, 1-(6-Butyl-3-(1H-Indol-5-yl)Pyrazin-2-yl)Piperidine-4-Carboxylic Acid]"
–,> 2000 nM,"CCCCc1cnc(-c2ccc(OCCN(C)C)cc2)c(N2CCC(C(=O)O)CC2)n1 [Compound 6, 1-(6-Butyl-3-(4-(2-(Dimethylamino)Ethoxy)Phenyl)Pyrazin-2-yl)piperidine-4-carboxylic acid]"
–,500 to 2000 nM,"CCCCc1cnc(-c2ccc(S(C)(=O)=O)cc2)c(N2CCC(C(=O)O)CC2)n1 [Compound 7, 1-(6-Butyl-3-(4-(Methylsulfonyl)Phenyl)Pyrazin-2-yl)Piperidine-4-carboxylic acid]"
–,> 2000 nM,"CCCCc1cnc(-c2ccc(OC)cc2)c(N2CCC(S(C)(=O)=O)CC2)n1 [Compound 8, 5-Butyl-2-(4-Methoxyphenyl)-3-(4-(Methylsulfonyl)Piperidin-1-yl)pyrazine]"
–,< 500 nM,"CCCCc1cnc(-c2cc(F)c3occc3c2)c(N2CCC(C(=O)O)CC2)n1 [Compound 9, 1-(6-Butyl-3-(7-Fluorobenzofuran-5-yl)Pyrazin-2-yl)Piperidine-4-carboxylic acid]"
–,< 500 nM,"CCCCc1cnc(-c2ccc(OC)cc2)c(N2CCC(F)(C(=O)O)CC2)n1 [Compound 10, 1-(6-Butyl-3-(4-Methoxyphenyl)Pyrazin-2-yl)-4-Fluoropiperidine-4-carboxylic acid]"
–,< 500 nM,"CCCCc1cnc(-c2ccc(OC)cc2)c(N2CCC(C(=O)NS(C)(=O)=O)CC2)n1 [Compound 11, 1-(6-Butyl-3-(4-Methoxyphenyl)Pyrazin-2-yl)-N-(Methylsulfonyl)Piperidine-4-carboxamide]"
–,> 2000 nM,"CCCCc1cnc(-c2ccc(OC)cc2)c(N2CCC(C(=O)O)C2)n1 (centres unmarked) [Compound 12, 1-(6-Butyl-3-(4-Methoxyphenyl)Pyrazin-2-yl)Pyrrolidine-3-Carboxylic acid]"
–,< 500 nM,"CCCCc1cnc(-c2ccc(OCCOC)cc2)c(N2CCC(C(=O)O)CC2)n1 [Compound 13, 1-(6-Butyl-3-(4-(2-Methoxyethoxy)Phenyl)Pyrazin-2-yl)Piperidine-4-carboxylic acid]"
–,< 500 nM,"CCCCc1cnc(-c2ccc(OC)cc2)c(N2CCC(C)(C(=O)O)CC2)n1 [Compound 14, 1-(6-Butyl-3-(4-Methoxyphenyl)Pyrazin-2-yl)-4-Methylpiperidine-4-carboxylic acid]"
–,< 500 nM,"CCCCc1cnc(-c2ccc(OC)cc2)c(N2CCC(CC(=O)O)CC2)n1 [Compound 15, 2-(1-(6-Butyl-3-(4-Methoxyphenyl)Pyrazin-2-yl)Piperidin-4-yl)Acetic acid]"
–,< 500 nM,"CCCCc1cnc(-c2ccc(OC)cc2)c(N2CCC(c3nn[nH]n3)CC2)n1 [Compound 16, 3-(4-(2H-Tetrazol-5-yl)Piperidin-1-yl)-5-Butyl-2-(4-methoxyphenyl)pyrazine]"
–,500 to 2000 nM,"CCCCc1cnc(-c2ccc3cc[nH]c3c2)c(N2CCC(C(=O)O)CC2)n1 [Compound 17, 1-(6-Butyl-3-(1H-Indol-6-yl)Pyrazin-2-yl)Piperidine-4-Carboxylic Acid]"
–,> 2000 nM,"CCCCc1cnc(-c2ccc(OC)cc2)c(-c2ccc(C(=O)O)nc2)c1 [Compound 18, 5′-butyl-2′-(4-methoxyphenyl)-[3,3′-bipyridine]-6-carboxylic acid]"
–,500 to 2000 nM,"CCCCc1cnc(-c2ccc(OC)cc2)c(-c2csc(C(=O)O)c2)c1 [Compound 19, 4-(5-butyl-2-(4-methoxyphenyl)pyridin-3-yl)thiophene-2-carboxylic acid]"
–,> 2000 nM,"CCCCc1cnc(-c2ccc(OC)cc2)c(-c2csc(C(=O)O)n2)c1 [Compound 20, 4-(5-butyl-2-(4-methoxyphenyl)pyridin-3-yl)thiazole-2-carboxylic acid]"
–,> 2000 nM,"CCCCc1cnc(-c2ccc(OC)cc2)c(-c2c[nH]c(C(=O)O)c2)c1 [Compound 21, 4-(5-butyl-2-(4-methoxyphenyl)pyridin-3-yl)-1H-pyrrole-2-carboxylic acid]"
–,> 2000 nM,"CCCCc1cnc(-c2ccc(OC)cc2)c(-c2coc(C(=O)O)c2)c1 [Compound 22, 4-(5-butyl-2-(4-methoxyphenyl)pyridin-3-yl)furan-2-carboxylic acid]"
–,> 2000 nM,"CCCCc1cnc(-c2ccc(OC)cc2)c(-c2cnc(C(=O)O)nc2)c1 [Compound 23, 5-(5-butyl-2-(4-methoxyphenyl)pyridin-3-yl)pyrimidine-2-carboxylic acid]"
